Literature values, collected in patent US5419315A, “Intrapulmonary delivery of hormones” (Aradigm Corporation, priority 1994, dated 1995).

Settings: in vivo

Bioavailability (%)	bioavailability when administered intranasally	Compound
2		CC(C)C[C@H](NC(=O)[C@@H](Cc1ccc2ccccc2c1)NC(=O)[C@H](Cc1ccc(O)cc1)NC(=O)[C@H](CO)NC(=O)[C@H](Cc1c[nH]c2ccccc12)NC(=O)[C@H](Cc1c[nH]cn1)NC(=O)[C@@H]1CCC(=O)N1)C(=O)N[C@@H](CCCNC(=N)N)C(=O)N1CCC[C@H]1C(=O)NCC(N)=O [Nafarelin]
< 10	relatively low	CCNC(=O)[C@@H]1CCCN1C(=O)[C@H](CCCNC(=N)N)NC(=O)[C@H](CC(C)C)NC(=O)[C@@H](CC(C)C)NC(=O)[C@H](Cc1ccc(O)cc1)NC(=O)[C@H](CO)NC(=O)[C@H](Cc1c[nH]c2ccccc12)NC(=O)[C@H](Cc1c[nH]cn1)NC(=O)[C@@H]1CCC(=O)N1 [Leuprolide]
10		NC(=O)CC[C@@H]1NC(=O)[C@H](Cc2ccccc2)NC(=O)[C@H](Cc2ccc(O)cc2)NC(=O)CCSSC[C@@H](C(=O)N2CCC[C@H]2C(=O)N[C@H](CCCN=C(N)N)C(=O)NCC(N)=O)NC(=O)[C@H](CC(N)=O)NC1=O [Desmopressin]

Compound	Bioavailability (%)	bioavailability when administered intranasally
LHRH	1.5	
Secretin	10	

Same assay, conditions: intranasal (nasal delivery)

Compound	Bioavailability (%)
Glucagon	< 1
CC[C@H](C)[C@@H]1NC(=O)[C@H](Cc2ccc(O)cc2)NC(=O)[C@@H](N)CSSC[C@@H](C(=O)N2CCC[C@H]2C(=O)N[C@@H](CC(C)C)C(=O)NCC(N)=O)NC(=O)[C@H](CC(N)=O)NC(=O)[C@H](CCC(N)=O)NC1=O [Oxytocin]	1
C[C@H](N)C(=O)NCC(=O)N[C@H]1CSSC[C@@H](C(=O)O)NC(=O)[C@H](CO)NC(=O)[C@H]([C@@H](C)O)NC(=O)[C@H](Cc2ccccc2)NC(=O)[C@H]([C@@H](C)O)NC(=O)[C@H](CCCCN)NC(=O)[C@H](Cc2c[nH]c3ccccc23)NC(=O)[C@H](Cc2ccccc2)NC(=O)[C@H](Cc2ccccc2)NC(=O)[C@H](CC(N)=O)NC(=O)[C@H](CCCCN)NC1=O [Somatostatin]	75
GHRH (YADAIFTNSYRKVLGQLSARKLLQDIMSRQQGESNQERGA; Somatoliberin; UniProt P01286 32-71, looked up, fragment)	< 1
Growth hormone	< 1
Calcitonin	< 1
